Legend:
[1] = system: IL-17A-induced G-CSF production in human normal keratinocyte (NHK); assay: NHK Assay: IL-17A-induced G-CSF production in human normal keratinocytes; format: cell-based; conditions: Homo sapiens, Keratinocyte, 24 h, adult normal human keratinocytes, IL-17A 5 ng/mL, simple average if tested more than once
How it was run: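 Inhibition of IL-17A-driven G-CSF release is measured in adult keratinocytes stimulated for 24 h at 37° C with 5 ng/mL human IL-17A that had been pre-incubated with compound for 1 h. IC50 comes from HTRF G-CSF levels; cell viability is checked in parallel by luminescent ATP assay.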

[2] = molecular target: IL-17A(FLAG-Tagged): IL-17RA(His-Tagged) (Homo sapiens, UniProt Q16552, K93Q); assay: IL-17A(FLAG-Tagged): IL-17RA(His-Tagged) Binding Disruption Eu-HTRF Assay; conditions: IL-17A/IL-17RA binding disruption, simple average if tested more than once
How it was run: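 IC50 comes from a one-site competition fit of the HTRF 665/620 nm ratio. Compound dilutions (2-fold, 22 points) were held 1 h rt with FLAG-tagged IL-17A dimer, then His-tagged IL-17RA plus Eu-cryptate anti-FLAG and D2 anti-His antibodies were added for 2 h rt.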

Sequence of UniProt Q16552 (Q16552 with tags, fused parts or gaps K93Q): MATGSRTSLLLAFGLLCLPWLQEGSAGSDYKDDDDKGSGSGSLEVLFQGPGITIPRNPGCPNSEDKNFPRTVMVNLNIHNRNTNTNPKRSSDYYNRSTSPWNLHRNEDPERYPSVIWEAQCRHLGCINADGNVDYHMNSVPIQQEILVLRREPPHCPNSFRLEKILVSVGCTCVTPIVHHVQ

| SMILES | IC50 [2] [nM] | IC50 [1] [nM] |
| --- | --- | --- |
| O=C(CCC(F)(F)F)N[C@@H](c1cnn2cc([C@@H](NC(=O)c3ncnn3CCCF)C3CCC(F)(F)CC3)nc2c1)C1CC1 [Example 47, N—((S)-(7-((R)-Cyclopropyl(4,4,4-trifluorobutanamido)methyl)imidazo[1,2-b]pyridazin-2-yl)(4,4-difluorocyclohexyl)methyl)-1-(3-fluoropropyl)-1H-1,2,4-triazole-5-carboxamide] | 180 | 640 |
| O=C(CCC(F)(F)F)N[C@@H](c1cnn2cc([C@@H](NC(=O)c3cnnn3CCC(F)F)C3CCC(F)(F)CC3)nc2c1)C1CC1 [Example 49, N—((S)-(7-((R)-Cyclopropyl(4,4,4-trifluorobutanamido)methyl)imidazo[1,2-b]pyridazin-2-yl)(4,4-difluorocyclohexyl)methyl)-1-(3,3-difluoropropyl)-1H-1,2,3-triazole-5-carboxamide] | 95 | 110 |
| Cc1c(C(=O)N[C@H](c2cn3ncc([C@H](NC(=O)CCC(F)(F)F)C4CC4)cc3n2)C2CCC(F)(F)CC2)cnn1CC(F)F [Example 50, N—((S)-(7-((R)-Cyclopropyl(4,4,4-trifluorobutanamido)methyl)imidazo[1,2-b]pyridazin-2-yl)(4,4-difluorocyclohexyl)methyl)-1-(2,2-difluoroethyl)-5-methyl-1H-pyrazole-4-carboxamide] | 350 | 1000 |
| O=C(CCC(F)(F)F)N[C@@H](c1cnn2cc([C@@H](NC(=O)c3ncnn3CCOC(F)F)C3CCC(F)(F)CC3)nc2c1)C1CC1 [Example 55, N—((S)-(7-((R)-Cyclopropyl(4,4,4-trifluorobutanamido)methyl)imidazo[1,2-b]pyridazin-2-yl)(4,4-difluorocyclohexyl)methyl)-1-(2-(difluoromethoxy)ethyl)-1H-1,2,4-triazole-5-carboxamide] | 100 | 210 |
| O=C(CCC(F)(F)F)N[C@@H](c1cnn2cc([C@@H](NC(=O)c3ncnn3CC(F)F)C3CCC(F)(F)CC3)nc2c1)C1CC1 [Example 56, N—((S)-(7-((R)-Cyclopropyl(4,4,4-trifluorobutanamido)methyl)imidazo[1,2-b]pyridazin-2-yl)(4,4-difluorocyclohexyl)methyl)-1-(2,2-difluoroethyl)-1H-1,2,4-triazole-5-carboxamide] | 170 | 730 |
| O=C(CCC(F)(F)F)N[C@@H](c1cnn2cc([C@@H](NC(=O)c3ncnn3CCF)C3CCC(F)(F)CC3)nc2c1)C1CC1 [Example 57, N—((S)-(7-((R)-Cyclopropyl(4,4,4-trifluorobutanamido)methyl)imidazo[1,2-b]pyridazin-2-yl)(4,4-difluorocyclohexyl)methyl)-1-(2-fluoroethyl)-1H-1,2,4-triazole-5-carboxamide] | 220 | 770 |
| O=C(CCC(F)(F)F)N[C@@H](c1cnn2cc([C@@H](NC(=O)c3ncnn3CC(F)(F)F)C3CCC(F)(F)CC3)nc2c1)C1CC1 [Example 61, N—((S)-(7-((R)-Cyclopropyl(4,4,4-trifluorobutanamido)methyl)imidazo[1,2-b]pyridazin-2-yl)(4,4-difluorocyclohexyl)methyl)-1-(2,2,2-trifluoroethyl)-1H-1,2,4-triazole-5-carboxamide] | 190 | 1200 |
| COCCn1ncc(C(=O)N[C@H](c2cn3ncc([C@H](NC(=O)CCC(F)(F)F)C4CC4)cc3n2)C2CCC(F)(F)CC2)n1 [Example 64, N—((S)-(7-((R)-Cyclopropyl(4,4,4-trifluorobutanamido)methyl)imidazo[1,2-b]pyridazin-2-yl)(4,4-difluorocyclohexyl)methyl)-2-(2-methoxyethyl)-2H-1,2,3-triazole-4-carboxamide] | 630 | 2000 |
| CC(C)n1nncc1C(=O)N[C@H](c1cn2ncc([C@H](NC(=O)CCC(F)(F)F)C3CC3)cc2n1)C1CCC(F)(F)CC1 [Example 65, N—((S)-(7-((R)-Cyclopropyl(4,4,4-trifluorobutanamido)methyl)imidazo[1,2-b]pyridazin-2-yl)(4,4-difluorocyclohexyl)methyl)-1-isopropyl-1H-1,2,3-triazole-5-carboxamide] | 110 | 72 |

More lines, in order of falling IC50 [2], values ahead:

| IC50 [2] [nM] | SMILES | IC50 [1] [nM] |
| --- | --- | --- |
| 830 | CC1(C)CC1C(=O)N[C@H](c1cn2ncc([C@H](NC(=O)CCC(F)(F)F)C3CC3)cc2n1)C1CCC(F)(F)CC1 (stereo partly drawn) [Example 62, N—((S)-(7-((R)-Cyclopropyl(4,4,4-trifluorobutanamido)methyl)imidazo[1,2-b]pyridazin-2-yl)(4,4-difluorocyclohexyl)methyl)-2,2-dimethylcyclopropane-1-carboxamide] | ~4000 |
| 420 | CCn1ncc(C(=O)N[C@H](c2cn3ncc([C@H](NC(=O)CCC(F)(F)F)C4CC4)cc3n2)C2CCC(F)(F)CC2)n1 [Example 59, N—((S)-(7-((R)-Cyclopropyl(4,4,4-trifluorobutanamido)methyl)imidazo[1,2-b]pyridazin-2-yl)(4,4-difluorocyclohexyl)methyl)-2-ethyl-2H-1,2,3-triazole-4-carboxamide] | 3600 |
| 390 | O=C(CCC(F)(F)F)N[C@@H](c1cnn2cc([C@@H](NC(=O)C3(F)CC3)C3CCC(F)(F)CC3)nc2c1)C1CC1 [Example 60, N—((S)-(7-((R)-Cyclopropyl(4,4,4-trifluorobutanamido)methyl)imidazo[1,2-b]pyridazin-2-yl)(4,4-difluorocyclohexyl)methyl)-1-fluorocyclopropane-1-carboxamide] | 3500 |
| 240 | O=C(CCC(F)(F)F)N[C@@H](c1cnn2cc([C@@H](NC(=O)C3CC34CCC4)C3CCC(F)(F)CC3)nc2c1)C1CC1 (stereo partly drawn) [Example 45, N—((S)-(7-((R)-Cyclopropyl(4,4,4-trifluorobutanamido)methyl)imidazo[1,2-b]pyridazin-2-yl)(4,4-difluorocyclohexyl)methyl)spiro[2.3]hexane-1-carboxamide] | 710 |
| 230 | Cn1nnc(C(=O)N[C@H](c2cn3ncc([C@H](NC(=O)CCC(F)(F)F)C4CC4)cc3n2)C2CCC(F)(F)CC2)c1C(F)F [Example 66, N—((S)-(7-((R)-Cyclopropyl(4,4,4-trifluorobutanamido)methyl)imidazo[1,2-b]pyridazin-2-yl)(4,4-difluorocyclohexyl)methyl)-5-(difluoromethyl)-1-methyl-1H-1,2,3-triazole-4-carboxamide] | 3500 |
| 150 | O=C(CCC(F)(F)F)N[C@@H](c1cnn2cc([C@@H](NC(=O)c3cnnn3C3CC3)C3CCC(F)(F)CC3)nc2c1)C1CC1 [Example 68, 1-Cyclopropyl-N—((S)-(7-((R)-cyclopropyl(4,4,4-trifluorobutanamido)methyl)imidazo[1,2-b]pyridazin-2-yl)(4,4-difluorocyclohexyl)methyl)-1H-1,2,3-triazole-5-carboxamide] | 250 |
| 130 | O=C(CCC(F)(F)F)N[C@@H](c1cnn2cc([C@@H](NC(=O)c3ncnn3CCC(F)F)C3CCC(F)(F)CC3)nc2c1)C1CC1 [Example 46, N—((S)-(7-((R)-Cyclopropyl(4,4,4-trifluorobutanamido)methyl)imidazo[1,2-b]pyridazin-2-yl)(4,4-difluorocyclohexyl)methyl)-1-(3,3-difluoropropyl)-1H-1,2,4-triazole-5-carboxamide] | 640 |
| 130 | O=C(CCC(F)(F)F)N[C@@H](c1cnn2cc([C@@H](NC(=O)c3cnn(CC4CC(F)(F)C4)n3)C3CCC(F)(F)CC3)nc2c1)C1CC1 [Example 63, N—((S)-(7-((R)-Cyclopropyl(4,4,4-trifluorobutanamido)methyl)imidazo[1,2-b]pyridazin-2-yl)(4,4-difluorocyclohexyl)methyl)-2-((3,3-difluorocyclobutyl)methyl)-2H-1,2,3-triazole-4-carboxamide] | 200 |
| 110 | O=C(CCC(F)(F)F)N[C@@H](c1cnn2cc([C@@H](NC(=O)c3ccnn3C(CF)CF)C3CCC(F)(F)CC3)nc2c1)C1CC1 [Example 69, N—((S)-(7-((R)-Cyclopropyl(4,4,4-trifluorobutanamido)methyl)imidazo[1,2-b]pyridazin-2-yl)(4,4-difluorocyclohexyl)methyl)-1-(1,3-difluoropropan-2-yl)-1H-pyrazole-5-carboxamide] | 55 |
| 82 | O=C(CCC(F)(F)F)N[C@@H](c1cnn2cc([C@@H](NC(=O)c3ccnn3C(F)F)C3CCC(F)(F)CC3)nc2c1)C1CC1 [Example 67, N—((S)-(7-((R)-Cyclopropyl(4,4,4-trifluorobutanamido)methyl)imidazo[1,2-b]pyridazin-2-yl)(4,4-difluorocyclohexyl)methyl)-1-(difluoromethyl)-1H-pyrazole-5-carboxamide] | 180 |
| 81 | CCn1nncc1C(=O)N[C@H](c1cn2ncc([C@H](NC(=O)CCC(F)(F)F)C3CC3)cc2n1)C1CCC(F)(F)CC1 [Example 58, N—((S)-(7-((R)-Cyclopropyl(4,4,4-trifluorobutanamido)methyl)imidazo[1,2-b]pyridazin-2-yl)(4,4-difluorocyclohexyl)methyl)-1-ethyl-1H-1,2,3-triazole-5-carboxamide] | 270 |
| 63 | O=C(CCC(F)(F)F)N[C@@H](c1cnn2cc([C@@H](NC(=O)c3cnnn3CC3CC3)C3CCC(F)(F)CC3)nc2c1)C1CC1 [Example 48, N—((S)-(7-((R)-Cyclopropyl(4,4,4-trifluorobutanamido)methyl)imidazo[1,2-b]pyridazin-2-yl)(4,4-difluorocyclohexyl)methyl)-1-(cyclopropylmethyl)-1H-1,2,3-triazole-5-carboxamide] | 160 |

Source: patent US11702422B2, “Imidazopyridazines as modulators of IL-17” (Janssen Pharmaceutica NV, priority 2020, dated 2023)
